Measured values from US11213481B2, “Tumescent drug delivery” (priority 2004, dated 2022).
In brackets after ≈: the same amount, converted by molar mass. Several values for one entry are separate records, joined by “and”; a condition that tells them apart may be missing. Equal entries are not always repeated. Where two headings read alike, the source gives them in different places.

Experiments:
[1] = system: Staphyloccus aureus (MRSA) ATCC 33592; assay: Minimum Bactericidal Concentration (MBC); type: cell-based, Staphylococcus aureus
Excerpt: Determinations of MBC followed the method described in “Report on the Working Party on Antibiotic Sensitivity Testing of the British Society of Antimicrobial Chemotherapy: A Guide to Sensitivity Testing.”

[2] = cited from earlier work
S. aureus = conditions: effect increases with greater duration of exposure; cited from earlier work
[3] = system: Staphyloccus aureus (MRSA) ATCC 33592; assay: Minimum Inhibitory Concentration (MIC); conditions: Staphylococcus aureus
Experimental: Following inoculation, survival of test microorganisms was determined.

[4] = routine local anesthesia with lidocaine; cited from earlier work
platelet function = assay: Bleeding time and bleeding area before and after tumescent lidocaine exposure (preliminary experiment); type: in vivo, human
Experimental: The skin of the left and right thigh of a subject is cleaned and allowed to dry. […] Simultaneous 4 mm deep puncture wounds are made to the same area of the left and right thighs with disposable lancets. The puncture sites are blotted with filter paper every 30 seconds, until bleeding stops and the bleeding time for each thigh is recorded. The bleeding times of the left and right thigh are compared to determine if administration of TLAnti increases bleeding time. Normal bleeding time measured by the Duke method is 1 to 3 minutes.
In a preliminary experiment, bleeding time and bleeding area were measured in a patient before and after tumescent lidocaine exposure. […] In contrast, there was a 40% increase in Average Bleeding Area (BA). Bleeding Area (BA) was a more sensitive and a more specific test for platelet function compared to Bleeding Time (BT). […] In otherwords, TAD may reduce the risk of both post-operative surgical site infection and post-operative thromboembolism.

[5] = system: platelet aggregation induced by ADP, epinephrine and collagen; conditions: cited from earlier work
clinical = conditions: human, in vivo
Experimental: A clinical pharmacologic investigation was conducted to compare the pharmacokinetic advantages of two modes of systemic antibiotic delivery, Tumescent antibiotic delivery (TAD), which involves the delivery of a relatively large volume of an antibiotic-containing solution to the subcutaneous compartment, and intravenous antibiotic delivery (IVAD), which results in direct delivery of antibiotics to the blood stream, for prophylaxis of SSI.
With Institutional Review Board (IRB) approval, the absorption pharmacokinetics of tumescent antibiotic delivery (TAD) and intravenous antibiotic delivery (IVAD) were tested in human subjects and the antibiotic delivery modes were evaluated with respect to the area under the curve (AUC) of antibiotic concentration as a function of time and peak antibiotic concentration (Cmax) in serum and TISF. 4 female subjects participated in at least one study, one subject volunteered for 2 separate studies. 5 studies were conducted: 3 involved TAD to the abdomen, 1 involved TAD to the hips and outer thighs and 1 involved TAD to the breasts. […] Each of the 5 studies consisted of 2 to 3 pharmacokinetic procedures, for a total of 14 procedures. Any procedures conducted on an individual subject were separated by at least one week. In 13 procedures only IVAD or TAD, was used. In one procedure both IVAD and TAD were used concurrently, with IVAD started and finished within five minutes after completing TAD.
TAD was conducted as described herein. Following TAD, sequential 10 ml samples of tumescent adipose tissue were obtained using a hand-held syringe-liposuction technique. Sampling began immediately after completing the TAD infiltration (T0), and continuing until the patients reported significant discomfort. Liposuction aspirate samples were obtained at 0, 1, 2, 3, 4, 6, and 8 hours in all procedures; in 4 TAD procedures, sampling continued until 10 hours. Sequential serum samples for measurement of antibiotic concentration in serum after TAD ([Serum]TAD) were obtained simultaneously.
For IVAD, the antibiotic was delivered into an antecubital vein. Following IVAD, serum samples were taken from the contralateral arm via an indwelling venous catheter beginning immediately after completion of the antibiotic delivery (T0).
The samples of liposuction aspirate were centrifuged to obtain infranatant TISF, which comprises minimally blood-tinged tissue-free residual tumescent solution.
AUC (Area Under the Curve) of drug concentration as a function of time, a metric for measuring the cumulative exposure to an individual drug within a specified tissue, was estimated for time T0 to time Tn using the trapezoid rule: […]

[6] = cited from earlier work; remark: listed apart in the source
[7] = cited from earlier work; remark: listed apart in the source
[8] = 1 gm at the end of the surgery; 405 abdominal surgery patients; cited from earlier work
[9] = after vs before tumescent lidocaine exposure
[10] = post-op tumescent lidocaine exposure, Pt# 1, tests T3, T4

Cc1nnc(SCC2=C(C(=O)O)N3C(=O)[C@@H](NC(=O)Cn4cnnn4)[C@H]3SC2)s1 [Cefazolin]
MRSA growth (MBC test) ([1]; Day 1, Cefazolin 62.5 mg/L, MRSA inoculum 4.7 × 10^5 CFU/ml): +
MRSA growth (MBC test) ([1]; Day 1, Cefazolin 125 mg/L, MRSA inoculum 4.7 × 10^5 CFU/ml): +
MRSA growth (MBC test) ([1]; Day 1, Cefazolin 250 mg/L, MRSA inoculum 4.7 × 10^5 CFU/ml): 0
MRSA growth (MBC test) ([1]; Day 2, Cefazolin 62.5 mg/L, MRSA inoculum 4.4 × 10^5 CFU/ml): +
MRSA growth (MBC test) ([1]; Day 2, Cefazolin 125 mg/L, MRSA inoculum 4.4 × 10^5 CFU/ml): +
MRSA growth (MBC test) ([1]; Day 2, Cefazolin 250 mg/L, MRSA inoculum 4.4 × 10^5 CFU/ml): 0

CCN(CC)CC(=O)Nc1c(C)cccc1C [Lidocaine]
dosage limitation approved by the FDA for infiltration local anesthesia ([2]; commercial lidocaine (1%=10 gm/L) with epinephrine (1:100,000=10 mg/L)): 7 mg/kg
maximum safe mg/kg dosage (estimated) ([2]; tumescent lidocaine, TLA without liposuction, adults): ~30 mg/kg
MRSA growth (MBC test) ([1]; Day 1, Lidocaine 1,000 mg/L, MRSA inoculum 4.7 × 10^5 CFU/ml): +
MRSA growth (MBC test) ([1]; Day 2, Lidocaine 1,000 mg/L, MRSA inoculum 4.4 × 10^5 CFU/ml): +
MRSA growth (MBC test) ([1]; Day 2, Lidocaine 5,000 mg/L, MRSA inoculum 4.4 × 10^5 CFU/ml): +
MRSA growth (MBC test) ([1]; Day 2, Lidocaine 10,000 mg/L, MRSA inoculum 4.4 × 10^5 CFU/ml): 0
bactericidal activity in vitro (S. aureus): bactericidal
MIC [3]: ~5000 µg/mL (≈ 21.3 mM)
duration of local anesthesia [4]: ~2 h
change in Average Bleeding Time (BT) (platelet function; [9]): essentially no change
increase in Average Bleeding Area (BA) (platelet function; [9]): 40%
Lidocaine BA (Average Bleeding Area) (platelet function; post-op tumescent lidocaine exposure, Control BA = 541): BA = 759
Lidocaine BT (Average Bleeding Time) (platelet function; post-op tumescent lidocaine exposure, Control BT = 6): BT = 5.75
Bleeding Area BA (platelet function; [10]): 791.81 and 726.03
Bleeding Time BT × 2 (platelet function; [10]): 10 and 13
lidocaine concentration that consistently inhibits in-vitro platelet aggregation ([5]; aggregation induced by ADP, epinephrine and collagen): ≥ 0.5 mg/mL
effect on platelet aggregation ([5]; at safe systemic concentrations (e.g. ≤6 micrograms/ml)): no effect
platelet aggregation induced by ADP [5]: inhibit

Cc1ncc([N+](=O)[O-])n1CCO [Metronidazole]
interval in which serum concentration of metronidazole exceeded 4 μg/ml (clinical; female): 0 to 12 h
interval in which serum concentration of metronidazole exceeds 4 μg/ml (clinical; female): 0 to 12 h
AUC (clinical; female, 500 mg, AUC[Serum]IVAD, metronidazole, Study 4, IVAD dose 500 mg): 122 µg·h/mL
AUC (clinical; female, 500 mg, AUC[Serum]TAD): 67 µg·h/mL
AUC (clinical; female, 500 mg, AUC[TISF]TAD): 2600 µg·h/mL
AUC (clinical; female, 600 mg, AUC[Serum]IVAD, metronidazole, Study 5, IVAD dose 600 mg): 127 µg·h/mL
AUC (clinical; female, 600 mg, AUC[Serum]TAD): 81 µg·h/mL
AUC (clinical; female, 600 mg, AUC[TISF]TAD, metronidazole, Study 5 (Abdomen) TAD1: 600 mg, 172 mg/L in TAD): 1030 µg·h/mL
ER3 = ER1/ER2 = AUC[TISF]TAD/AUC[Serum]TAD (clinical; 500 mg): 38.8
ER3 = ER1/ER2 = AUC[TISF]TAD/AUC[Serum]TAD (clinical; 600 mg): 12.7

CCOC(=O)c1ccc(N)cc1 [benzocaine]
platelet aggregation induced by ADP [5]: inhibit

CCCCN1CCCCC1C(=O)Nc1c(C)cccc1C (stereo not drawn) [bupivacaine]
platelet aggregation induced by ADP [5]: inhibit

CO[C@@]1(NC(=O)Cc2cccs2)C(=O)N2C(C(=O)O)=C(COC(N)=O)CS[C@@H]21 [cefoxitin]
protein binding [6]: approximately 72%
subjects with penetration P=AUC[ISF]IVAD/AUC[SERUM]IVAD less than 0.1 ([7]; normal controls): 3/10
Penetration PR ([7]; normal weight volunteers, microdialysis): 0.37±0.26
degree of antibiotic penetration into ISF relative to normal weight subjects ([7]; obese patients): 22%
subjects with penetration P=AUC[ISF]IVAD/AUC[SERUM]IVAD less than 0.1 ([7]; obese subjects): 8/10

O=C(Cc1cccs1)N[C@@H]1C(=O)N2C(C(=O)[O-])=C(C[n+]3ccccc3)CS[C@H]12 [cephaloridine]
incidence of wound infection, intravenous vs intra incisional [8]: no significant difference
